Reference: US12650424B2, “Method and system for determining intracellular mediators' activity” (ECOLE POLYTECHNIQUE FEDERALE DE LAUSANNE (EPFL), priority 2020, dated 2026)

Legend:
angiotensin receptor = details: plasma membranes of HEK cells on beads
[1] = tested on: Protease-activated receptor PAR; test: dose response of GPCR activation in plasma membranes on immunostained WGA-beads (Gαq release); assay type: biochemical; details: plasma membranes of HEK cells on beads; different concentrations
Description: FIG. 3. Schematic representation of the synthetic GPCR screening platform. 1. […] 2. […] 3. […] This leads to fluorescence labeled Gα-protein subunits. 4. […] 5.

receptor activation triggering release of Gαq [1]	Substance	receptor activation triggering release of Gαi (angiotensin receptor)
–	angiotensin	activated in a dose-dependent manner
activated by different concentrations	thrombin	–
